Patent US8614215B2, “Quinoxaline inhibitors of phosphoinositide-3-kinases (PI3Ks)” (Merck Serono SA, priority 2007, dated 2013)

These molecules were tested on Human recombinant GST-PI3K (assay: PI3K induced-lipid phosphorylation, neomycin-SPA scintillation proximity assay). Details: Human recombinant GST-PI3K, SPA.
Format: biochemical
Text: The efficacy of compounds of the invention in inhibiting the PI3K induced-lipid phosphorylation may be tested in the following binding assay. The assay combines the scintillation proximity assay technology (SPA, Amersham) with the capacity of neomycin (a polycationic antibiotic) to bind phospholipids with high affinity and specificity. The Scintillation Proximity Assay is based on the properties of weakly emitting isotopes (such as ^3H, ^125I, ^33P). Coating SPA beads with neomycin allows the detection of phosphorylated lipid substrates after incubation with recombinant PI3K and radioactive ATP in the same well, by capturing the radioactive phospholipids to the SPA beads through their specific binding to neomycin.
To a 96 wells MTP containing 10 μL of the test compound of Formula (I) (solubilized in 10% DMSO; […]), the following assay components are added: 1) 10 μL of lipid micelles 2) 20 μL of Kinase buffer ([^33P]γATP162 μM/300 nCi, MgCl2 2.5 mM, DTT 2.5 mM, Na3VO4 25 uM in Hepes 40 mM, pH 7.4) and 3) 10 μL (100 ng) of Human recombinant GST-PI3K (in Hepes 40 mM, pH 7.4, ethylenglycol 4%). After incubation at room temperature for 120 minutes, with gentle agitation, the reaction is stopped by addition of 200 μL of a solution containing 250 μg of neomycin-coated PVT SPA beads, ATP 60 mM and EDTA 6.2 mM in PBS. The assay is further incubated at room temperature for 60 minutes with gentle agitation to allow binding of phospholipids to neomycin-SPA beads. After precipitation of the neomycin-coated PVT SPA beads for 5 minutes at 1500×g, radioactive PtdIns(3)P is quantified by scintillation counting in a Wallac MicroBeta™ plate counter.
The values indicated in Table I below refer to the IC50 (μM) with respect to PI3K, i.e. the amount necessary to achieve 50% inhibition of said target. Said values show a considerable inhibitory potency of quinoxaline compounds with regard to PI3K.

Row | Compound | IC50 [nM]
1 | COc1ccc(CCS(C)(=O)=O)c(Nc2nc3ccccc3nc2NS(=O)(=O)c2cn(C)cn2)c1 [Example 40, N-[3-({5-Methoxy-2-[2-(methylsulfonyl)ethyl]phenyl}amino)quinoxalin-2-yl]-1-methyl-1H-imidazole-4-sulfonamide] | 84
2 | COC(=O)CCc1ccc(S(=O)(=O)Nc2nc3ccccc3nc2Nc2cc(OC)ccc2CCO)cc1 [Example 41, Methyl 3-(4-{[(3-{[2-(2-hydroxyethyl)-5-methoxyphenyl]amino}quinoxalin-2-yl)amino]sulfonyl}phenyl)propanoate] | 70
3 | COc1ccc(CCCO)c(Nc2nc3ccccc3nc2NS(=O)(=O)c2c(C)noc2C)c1 [Example 42, N-(3-{[2-(3-Hydroxpropyl)-5-methoxyphenyl]amino}quinoxalin-2-yl)-3,5-dimethylisoxazole-4-sulfonamide] | 130
4 | COc1ccc(CCO)c(Nc2nc3ccccc3nc2NS(=O)(=O)c2c(C)noc2C)c1 [Example 43] | 286
5 | COc1ccc(CCS(C)(=O)=O)c(Nc2nc3ccccc3nc2NS(C)(=O)=O)c1 [Example 44, N-[3-({5-Methoxy-2-[2-(methylsulfonyl)ethyl]phenyl}amino)quinoxalin-2-yl]methanesulfonamide] | 200
6 | COc1ccc(CCO)c(Nc2nc3ccccc3nc2NS(=O)(=O)C2CCCCC2)c1 [Example 45, N-(3-{[2-(2-Hydroxyethyl)-5-methoxyphenyl]amino}quinoxalin-2-yl) cyclohexanesulfonamide] | 57
7 | COc1ccc(CCCO)c(Nc2nc3ccccc3nc2NS(=O)(=O)c2cn(C)c(CN(C)C)n2)c1 [Example 47, 2-[(Dimethylamino)methyl]-N-(3-{[2-(3-hydroxypropyl)-5-methoxyphenyl]amino}quinoxalin-2-yl)-1-methyl-1H-imidazole-4-sulfonamide] | 28
8 | CCS(=O)(=O)Nc1nc2ccccc2nc1Nc1cc(OC)ccc1CCS(C)(=O)=O [Example 51, N-[3-({5-Methoxy-2-[2-(methylsulfonyl)ethyl]phenyl}amino)quinoxalin-2-yl]ethanesulfonamide] | 88
9 | COc1ccc(CCS(C)(=O)=O)c(Nc2nc3ccccc3nc2NS(=O)(=O)C(C)C)c1 [Example 52, N-[3-({5-Methoxy-2-[2-(methylsulfonyl)ethyl]phenyl}amino)quinoxalin-2-yl]propane-2-sulfonamide] | 160
10 | COc1ccc(CCS(C)(=O)=O)c(Nc2nc3ccccc3nc2NS(=O)(=O)c2c(C)noc2C)c1 [Example 54, N-[3-({5-Methoxy-2-[2-(methylsulfonyl)ethyl]phenyl}amino)quinoxalin-2-yl]-3,5-dimethylisoxazole-4-sulfonamide] | 190
11 | COc1ccc(CCS(C)(=O)=O)c(Nc2nc3ccccc3nc2NS(=O)(=O)c2ccccc2)c1 [Example 55, N-[3-({5-Methoxy-2-[2-(methylsulfonyl)ethyl]phenyl}amino)quinoxalin-2-yl]benzenesulfonamide] | 42
12 | COc1ccc(CCO)c(Nc2nc3ccccc3nc2NS(=O)(=O)C2CCS(=O)(=O)C2)c1 (stereo not drawn) [Example 56] | 86
13 | COc1ccc(CCS(C)(=O)=O)c(Nc2nc3ccccc3nc2NS(=O)(=O)CCCSC)c1 [Example 57, N-[3-({5-Methoxy-2-[2-(methylsulfonyl)ethyl]phenyl}amino)quinoxalin-2-yl]-3-(methylthio)propane-1-sulfonamide] | 140
14 | COc1ccc(CCS(C)(=O)=O)c(Nc2nc3ccccc3nc2NS(=O)(=O)CCCS(C)(=O)=O)c1 [Example 59, N-[3-({5-Methoxy-2-[2-(methylsulfonyl)ethyl]phenyl}amino)quinoxalin-2-yl]-3-(methylsulfonyl)propane-1-sulfonamide] | 350
15 | COCCc1ccc(OC)cc1Nc1nc2ccccc2nc1NS(=O)(=O)c1cn(C)cn1 [Example 62, N-(3-{[5-Methoxy-2-(2-methoxyethyl)phenyl]amino}quinoxalin-2-yl)-1-methyl-1H-imidazole-4-sulfonamide] | 83
16 | COc1ccc(CCCO)c(Nc2nc3ccccc3nc2NS(=O)(=O)C2CCS(=O)(=O)C2)c1 (stereo not drawn) [Example 63, N-(3-{[2-(3-Hydroxypropyl)-5-methoxyphenyl]amino}quinoxalin-2-yl)tetrahydrothiophene-3-sulfonamide 1,1-dioxide] | 130
17 | COc1ccc(S(=O)(=O)NCCO)c(Nc2nc3ccccc3nc2NS(=O)(=O)CCCS(C)(=O)=O)c1 [Example 64, N-(2-Hydroxyethyl)-4-methoxy-2-{[3-({[3-(methylsulfonyl)propyl]sulfonyl}amino)quinoxalin-2-yl]amino}benzenesulfonamide] | 300
18 | COc1ccc(CCS(C)(=O)=O)c(Nc2nc3ccccc3nc2NS(=O)(=O)c2cn(C)c(CN(C)C)n2)c1 [Example 65, 2-[(Dimethylamino)methyl]-N-[3-({5-methoxy-2-[2-(methylsulfonyl)ethyl]phenyl}amino)quinoxalin-2-yl]-1-methyl-1H-imidazole-4-sulfonamide] | 87
19 | COc1ccc(CCCO)c(Nc2nc3ccccc3nc2NS(=O)(=O)C2CCN(C(=O)OCc3ccccc3)CC2)c1 [Example 66, Benzyl 4-{[(3-{[2-(3-hydroxypropyl)-5-methoxyphenyl]amino}quinoxalin-2-yl)amino]sulfonyl}piperidine-1-carboxylate] | 720
20 | COc1cc(Nc2nc3ccccc3nc2NS(=O)(=O)c2cn(C)cn2)cc(C(=O)NCCO)c1 [Example 67, N-(2-Hydroxyethyl)-3-methoxy-5-[(3-{[(1-methyl-1H-imidazol-4-yl)sulfonyl]amino}quinoxalin-2-yl)amino]benzamide] | 100
21 | COc1ccc(CCCS(C)(=O)=O)c(Nc2nc3ccccc3nc2NS(=O)(=O)c2cn(C)cn2)c1 [Example 68, N-[3-({5-Methoxy-2-[3-(methylsulfonyl)propyl]phenyl}amino)quinoxalin-2-yl]-1-methyl-1H-imidazole-4-sulfonamide] | 50
22 | COc1ccc(CCO)c(Nc2nc3ccccc3nc2NS(=O)(=O)c2ccc(NC(=O)CO)cc2)c1 [Example 69, 2-Hydroxy-N-(4-{[(3-{[2-(2-hydroxyethyl)-5-methoxyphenyl]amino}quinoxalin-2-yl)amino]sulfonyl}phenyl)acetamide] | 65

Other lines, results leading:

Row | IC50 [nM] | Compound
23 | 95 | COc1ccc(CCO)c(Nc2nc3ccccc3nc2NS(C)(=O)=O)c1 [Example 37, N-(3-{[2-(2-Hydroxyethyl)-5-methoxyphenyl]amino}quinoxalin-2-yl)methanesulfonamide]
24 | 60 | CCS(=O)(=O)Nc1nc2ccccc2nc1Nc1cc(OC)ccc1CCO [Example 38, N-(3-{[2-(2-Hydroxyethyl)-5-methoxyphenyl]amino}quinoxalin-2-yl)ethanesulfonamide]
25 | 44 | CCCS(=O)(=O)Nc1nc2ccccc2nc1Nc1cc(OC)ccc1CCO [Example 39, N-(3-{[2-(2-Hydroxyethyl)-5-methoxyphenyl]amino}quinoxalin-2-yl)propane-1-sulfonamide]
26 | 64 | COc1ccc(CCCO)c(Nc2nc3ccccc3nc2NS(C)(=O)=O)c1 [Example 46, N-(3-{[2-(3-Hydroxypropyl)-5-methoxyphenyl]amino}quinoxalin-2-yl)methanesulfonamide]
27 | 59 | CCS(=O)(=O)Nc1nc2ccccc2nc1Nc1cc(OC)ccc1CCCO [Example 48, N-(3-{[2-(3-Hydroxypropyl)-5-methoxyphenyl]amino}quinoxalin-2-yl)ethanesulfonamide]
28 | 49 | CCCS(=O)(=O)Nc1nc2ccccc2nc1Nc1cc(OC)ccc1CCCO [Example 49, N-(3-{[2-(3-Hydroxypropyl)-5-methoxyphenyl]amino}quinoxalin-2-yl)propane-1-sulfonamide]
29 | 72 | COc1ccc(CCCO)c(Nc2nc3ccccc3nc2NS(=O)(=O)C(C)C)c1 [Example 50, N-(3-{[2-(3-Hydroxyproxyl)-5-methoxypheyl]amino}quinoxalin-2-yl)propane-2-sulfonamide]
30 | 87 | CCCS(=O)(=O)Nc1nc2ccccc2nc1Nc1cc(OC)ccc1CCS(C)(=O)=O [Example 53, N-[3-({5-Methoxy-2-[2-(methylsulfonyl)ethyl]phenyl}amino)quinoxalin-2-yl]propane-1-sulfonamide]
31 | 75 | COc1ccc(CCO)c(Nc2nc3ccccc3nc2NS(=O)(=O)CCCSC)c1 [Example 58, N-(3-{[2-(2-Hydroxyethyl)-5-methoxyphenyl]amino}quinoxalin-2-yl)-3-(methylthio)propane-1-sulfonamide]
32 | 120 | COc1ccc(CCCO)c(Nc2nc3ccccc3nc2NS(=O)(=O)CCCS(C)(=O)=O)c1 [Example 60, N-(3-{[2-(3-Hydroxypropyl)-5-methoxyphenyl]amino}quinoxalin-2-yl)-3-(methylsulfonyl)propane-1-sulfonamide]
33 | 120 | COc1ccc(CCO)c(Nc2nc3ccccc3nc2NS(=O)(=O)CCCS(C)(=O)=O)c1 [Example 61, N-(3-{[2-(2-Hydroxyethyl)-5-methoxyphenyl]amino}quinoxalin-2-yl)-3-(methylsulfonyl)propane-1-sulfonamide]
